Laboratory results as given in patent publication US20240268372A1, “Methods and Compositions for Extending Organ and Tissue Preservation” (The General Hospital Corporation, priority 2021, published 2024).

Test system: rat livers
Assay: Partial freezing of rat livers with 12% glycerol with or without ice modulators, SNMP recovery
Source text: Experimental design: FIG. 39 outlines the rat liver partial freezing protocol in eight consecutive steps: (1) liver procurement, (2) preconditioning during SNMP, (3) CPA preloading during hypothermic machine perfusion (HMP), (4) loading of final storage solution and ice modulators during HMP, (5) partial freezing of rat liver, (6) thawing of rat liver, (7) unloading of CPAs during HMP, and (8) functional recovery of frozen rat livers during SNMP.
Within this protocol, we first compared partially frozen livers at −10° C. (n=4 livers) and −15° C. (n=9 livers) with 12% glycerol. Upon finding minimal differences between these two groups, we combined them as a control and compared them to livers partially frozen with 0.5 mg/ml (0.05% w/v) of AFGP (n=4 livers) or 0.1% X-1000/0.2% Z-1000 (total, 0.3% w/v; n=4 livers) ice modulating agents added to the preservation solution. After freezing, liver viability on SNMP was compared between the 12% glycerol control group and the two ice modulated groups.
Partial freezing protocol: The rat liver perfusion system involved perfusion through the cannulated portal vein (PV) with regulation of pressure, flow, and temperature. Detailed set-up of the perfusion system has been previously described (see, e.g., ref. 34). The total rat hepatectomy protocol was approved by the Institutional Animal Care and Use Committee (IACUC) of Massachusetts General Hospital (Boston, MA). Livers were procured from male Lewis rats (250-300 g, age 10-12 weeks. Charles River Laboratories, Wilmington, MA) (FIG. 39, step 1). The bile duct was isolated and cannulated, and the rats were heparinized with 30U sodium heparin. PV splenic and gastric branches, as well as the hepatic artery were ligated prior to cannulation. The PV was subsequently cannulated with a 16-gauge catheter and immediately flushed with 40 ml of heparinized saline (1000U/ml at room temperature). The liver was then freed from all peritoneal attachments, flushed with an additional 20 ml of heparinized saline. After procurement, the liver was weighed, and machine perfusion was immediately initiated.
Preconditioning during SNMP was initiated at 21° C. with a flow rate of 5 ml/min (FIG. 39, step 2). […] The rat livers were perfused for 1 hour with 500 ml of preconditioning solution including Williams E, 200 U/l of insulin, 2% w/v PEG, 50 g/L BSA, 100 mM 3-O-methylglucose (3-OMG), 10,000 U/l of heparin, 24 mg/L of dexamethasone, 25 mg/ml of hydrocortisone, 40,000 μg/l of penicillin, and 40,000 U/l of streptomycin and sodium bicarbonate as needed to maintain a physiological pH (see Table 9 for composition of all solutions).
After 1 hour of preconditioning during SNMP, the temperature was decreased to 4° C. at a rate of ˜1° C./min. Flow rates were gradually adjusted as necessary to ensure a maximum perfusion pressure of 3-5 mmHg during HMP. The SNMP preconditioning solution was switched to 500 ml CPA preloading solution at 4° C. (including Williams E, 200 U/l of insulin, 2% PEG, 50 g/L BSA, 100 mM 3-OMG, 30 mM raffinose, 3% hydroxyethyl starch (HES), 6% glycerol, 4000 U/l of heparin, 24 mg/l of dexamethasone, 25 mg/ml of hydrocortisone, 40,000 μg/l of penicillin, 40,000 U/l of streptomycin, and sodium bicarbonate as needed to maintain a physiological pH) (FIG. 39, step 3; Table 9). HMP was continued for 1 hour to ensure complete equilibration of solution throughout the liver parenchyma. […]

[1] = after SNMP recovery, pooled 1 and 5 days

OCC(O)CO [GLY, glycerol]
mean perfusate lactate (12% glycerol only, pooled 1 and 5 days, at time zero): 1.17 ± 0.61 mmol/L
function of livers frozen at −10° C. vs −15° C. (perfusion metrics, weight gain, ATP, EC) (12% glycerol, pooled 1 and 5 days): not functionally different
H&E staining of liver parenchyma (after 1 and 5 day partial freezing): sinusoidal damage and compression, peri-portal endothelial destruction
TUNEL staining (after 1 and 5 days of frozen storage): remarkably less TUNEL staining
mean ATP [1]: 0.187 ± 0.075 µg/mL
mean energy charge (EC), (ATP+1/2ADP)/(ATP+ADP+AMP) [1]: 0.066±0.032
final mean weight gain (end of SNMP recovery vs weight after procurement, pooled 1 and 5 days): 26.9±15.3%
mean vascular resistance (pooled 1 and 5 days, at 0 hours): 0.528±0.39 mmHg/ml/min
mean perfusate potassium (pooled 1 and 5 days, at 1 hour): 6.5 ± 1.01 mmol/L
